Measured values taken from the supplement of paper PMC10307832.

Assays:
Assay in all cases: relative viability (nuclei count vs DMSO), 5 days (fraction); higher = more cells survive
[1] = compound: C[C@@]1(C(=O)Nc2ccc(F)nc2)CCCN1c1nc(Nc2cc(C3CC3)n[nH]2)c2cccn2n1 + COc1cc2c(Oc3ccc(NC(=O)C4(C(=O)Nc5ccc(F)cc5)CC4)cc3F)ccnc2cc1OCCCN1CCOCC1 [Foretinib] (partner 0.25 µM)
In short: (§1)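 After 5 days of treatment, lung cancer cells in 1536-well plates were fixed and stained in a single step (final 0.05% Triton X-100, 1% formaldehyde, 1 ug/ml Hoechst) and their nuclei counted on 4× images. Treatment had been applied by pin tool the day after seeding as one drug alone or as a fixed anchor-drug dose with five library-drug doses (not always all listed) in √10 steps. Relative viability is the nuclei count of treated wells divided by that of vehicle wells, and values are medians of duplicate plates.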

[2] = compound: CC1(C)CNc2cc(NC(=O)c3cccnc3NCc3ccncc3)ccc21 [Motesanib] + Cc1nc(Nc2ncc(C(=O)Nc3c(C)cccc3Cl)s2)cc(N2CCN(CCO)CC2)n1 [Dasatinib] (partner 0.075 µM)
In short: as §1

[3] = compound: C[C@@]1(C(=O)Nc2ccc(F)nc2)CCCN1c1nc(Nc2cc(C3CC3)n[nH]2)c2cccn2n1 + N=C(N)NC(=N)NCCc1ccccc1 [Phenformin] (partner 250 µM)
In short: as §1

[4] = compound: CC1(C)CNc2cc(NC(=O)c3cccnc3NCc3ccncc3)ccc21 [Motesanib] + Cc1nc(NC(=O)N2CCC[C@H]2C(N)=O)sc1-c1ccnc(C(C)(C)C(F)(F)F)c1 [Alpelisib] (partner 2 µM)
In short: as §1

Cell Line	relative viability ([1]; first compound 0.04 µM)	relative viability ([1]; first compound 0.1265 µM)	relative viability ([1]; first compound 0.4 µM)	relative viability ([1]; first compound 1.265 µM)	relative viability ([2]; first compound 0.01 µM)	relative viability ([2]; first compound 0.03162 µM)	relative viability ([2]; first compound 0.1 µM)	relative viability ([2]; first compound 0.3162 µM)	relative viability ([2]; first compound 1 µM)	relative viability ([3]; first compound 0.04 µM)	relative viability ([3]; first compound 0.1265 µM)	relative viability ([3]; first compound 0.4 µM)	relative viability ([3]; first compound 1.265 µM)	relative viability ([4]; first compound 0.01 µM)	relative viability ([4]; first compound 0.03162 µM)	relative viability ([4]; first compound 0.1 µM)	relative viability ([4]; first compound 0.3162 µM)	relative viability ([4]; first compound 1 µM)
201T	0.747	0.629	0.353	0.573	0.575	0.519	0.559	0.595	0.535	0.346	0.355	0.32	0.36	1.08	1.05	1.01	0.857	1.06
A549	0.891	0.659	0.582	0.272						0.131	0.155	0.101	0.281	0.785	0.866	0.728	0.779	0.909
A-427	1.19	0.988	0.785	1.15	0.606	0.724	0.663	0.721	0.81	0.341	0.265	0.229	0.211	1.12	1.08	1.05	1.09	1.04
ABC-1	0.773	0.782	0.744	0.38	0.518	0.544	0.605	0.65	0.619	0.182	0.211	0.216	0.216	1.02	0.995	1.24	0.974	1.18
BEN	0.918	0.649	0.678	0.536	0.286	0.342	0.333	0.325	0.343	0.291	0.229	0.272	0.281	1.07	1.08	0.897	0.972	1.18
CAL-12T	1.15	1.06	0.897	0.4	0.414	0.339	0.479	0.522	0.546	0.575	0.507	0.464	0.207	1.22	1.31	1.26	1.44	1.11
COR-L23	0.967	0.865	0.762	0.695	0.561	0.59	0.515	0.499	0.451	0.454	0.407	0.406	0.241	0.719	0.783	0.802	0.736	0.781
COR-L 105	0.887	0.993	0.828	1.01	0.407	0.243	0.308	0.401	0.394	0.422	0.368	0.346	0.393	0.872	1.16	0.992	0.79	1.26
Calu-6	0.959	0.871	0.758	0.414										0.984	0.931	0.928	1.02	1.03
ChaGo-K-1	0.831	0.829	0.828	0.888	0.55	0.535	0.544	0.696	0.691	0.403	0.283	0.296	0.4					
EBC-1	0.114	0.0828	0.0953	0.11										0.795	0.914	0.899	0.847	0.925
EKVX	0.684	0.751	0.602	0.253	0.592	0.462	0.527	0.654	0.505	0.204	0.215	0.218	0.221	0.778	0.883	0.875	0.922	0.895
EMC-BAC-2	0.849	0.721	0.327	0.574	0.292	0.34	0.342	0.339	0.303	0.472	0.437	0.399	0.313	0.76	0.742	0.768	0.731	0.704
EPLC-272H	0.57		0.558	0.796	0.344	0.405		0.421	0.287	0.315		0.251	0.275	0.908	1.12	0.898	0.897	0.914
H3255	1	1.1	0.883	0.787	0.304	0.38	0.473	0.302	0.338	0.298	0.372	0.346	0.332	0.78	0.7	0.762	0.684	0.771
HARA	0.802	0.78	0.652	1.01	0.225	0.2	0.215	0.303	0.3	0.431	0.386	0.395	0.442	0.808	0.852	0.815	0.943	0.831
HCC-15	0.906	0.485	0.614	0.686	0.648	0.53	0.648	0.758	0.723	0.387	0.209	0.27	0.259	0.97	0.885	0.969	0.972	0.931
HCC-44										0.178	0.116	0.134	0.0862	0.771	0.774	0.862	0.785	0.827
HCC-78	0.505	0.323	0.347	0.421	0.342	0.406	0.291	0.391	0.437	0.798	0.452	0.346	0.319	0.337	0.304	0.35	0.356	0.333
HCC-366	0.957	0.922	0.9	1.07	0.666	0.553	0.552	0.631	0.808	0.66	0.54	0.596	0.186	0.445	0.422	0.449	0.424	0.321
HCC-827	1.03	1.14	1.06	1.2	0.308	0.307	0.293	0.274	0.228	0.431	0.402	0.371	0.443	0.99	1.01	1.03	1.03	1.03

Cell Line	relative viability ([1]; first compound 0.04 µM)	relative viability ([1]; first compound 0.1265 µM)	relative viability ([1]; first compound 0.4 µM)	relative viability ([1]; first compound 1.265 µM)	relative viability ([2]; first compound 0.01 µM)	relative viability ([2]; first compound 0.03162 µM)	relative viability ([2]; first compound 0.1 µM)	relative viability ([2]; first compound 0.3162 µM)	relative viability ([2]; first compound 1 µM)	relative viability ([3]; first compound 0.04 µM)	relative viability ([3]; first compound 0.1265 µM)	relative viability ([3]; first compound 0.4 µM)	relative viability ([3]; first compound 1.265 µM)	relative viability ([4]; first compound 0.01 µM)	relative viability ([4]; first compound 0.03162 µM)	relative viability ([4]; first compound 0.1 µM)	relative viability ([4]; first compound 0.3162 µM)	relative viability ([4]; first compound 1 µM)
HOP-62	1.14	1.11	1.02	1.16	0.658	0.6	0.715	0.692	0.757	0.672	0.598	0.635	0.762	0.91	0.663	0.922	1.3	1.15
IA-LM	1.3	1.11	0.921	1.13										0.616	0.788	0.711	0.891	0.746
LC-2-ad	0.651	0.617	0.599	0.5	0.539	0.575	0.745	0.503	0.496	0.484	0.388	0.369	0.257	0.801	0.919	0.923	1.03	0.813
LCLC-97TM1	0.31	0.292	0.278	0.499	0.838	0.801	0.797	0.86	0.773	0.333	0.133	0.129	0.12	0.238	0.241	0.283	0.296	0.263
LCLC-103H	0.597	0.491	0.422	0.637	0.432	0.444	0.44	0.504	0.52	0.343	0.309	0.253	0.28		0.947	1.06	0.931	0.987
LK-2	0.731	0.945	0.671	0.979	0.322	0.212		0.379	0.245	0.251	0.178	0.166	0.202	1.06	0.962	1.44	1.05	1.19
LOU-NH91	0.938	0.94	0.86	0.948	0.515	0.536	0.621	0.594	0.586	0.673	0.646	0.596	0.608	0.746	0.759	0.708	0.707	0.802
LU99A	0.602	0.467	0.478	0.432	0.636	0.453	0.681	0.606	0.524	0.773	0.621	0.586	0.52	0.465	0.555	0.511	0.488	0.559
LXF-289	0.949	0.945	0.937	0.991	0.258	0.148	0.257	0.256	0.267	0.528	0.472	0.484	0.48	0.983	1.05	1.06	1.05	1.04
NCI-H23	0.591	0.539	0.622	0.914	0.881	0.737	0.662	0.892	0.746	0.703	0.648	0.533	0.704	0.798	0.481		0.639	0.603
NCI-H322M	0.907	0.608	0.62	0.655	0.234	0.216	0.268	0.26	0.262	0.686	0.561	0.531	0.499	0.713	0.737	0.837	0.751	0.778
NCI-H358	0.471	0.385	0.202	0.183	0.14	0.155	0.133	0.2	0.158	0.212	0.144	0.113	0.115	0.949	0.938	0.88	0.839	1.02
NCI-H522					0.754	0.835	0.921	0.862	0.864	0.557	0.633	0.59	0.56					
NCI-H1299	1.21	1.06	0.585	1.05										1.03	1.09	1.15	1.11	1.12
NCI-H1623	0.658	0.82	0.57	0.672	0.481	0.567	0.562	0.556	0.538	0.563	0.462	0.449	0.477					
NCI-H1650	1.53	1.16	0.984	1.08	0.374	0.337	0.33	0.329	0.298	0.411	0.387	0.376	0.193					
NCI-H1703	0.294	0.303	0.309	0.273										0.294	0.283	0.211	0.183	0.239
NCI-H1792						0.749	0.808	0.953	0.767	0.145	0.0792	0.208	0.189	0.702	0.63	0.78	0.757	0.685
NCI-H2342	1.02	0.906	0.812	0.917	0.271	0.312	0.336	0.279	0.317	0.574	0.43	0.46	0.44					
SW 900	0.705	0.694	0.558	0.816	0.545	0.714	0.858	0.611	0.461	0.566	0.544	0.596	0.461					
